From ChEMBL document CHEMBL6109035, “Anticonvulsant effects of new coumarin-2,3-dimethylbutadiene Diels-Alder cycloadducts in the pentylenetetrazole-induced clonic seizures in mice” (Bioorg Med Chem Lett, 2025) come the findings set out here.

A short description of data set [1]: Toxicity in male CD-1 mouse assessed as piloerection at 12 to 13 mg/kg, ip. The data set is classed as organism-based. Particulars: in vivo, dose 12-13 mg/kg.
Data set [2] can be described thus: Toxicity in male CD-1 mouse assessed as sedation at 12 to 13 mg/kg, ip. The data set is classed as organism-based. The note with it: in vivo, dose 12-13 mg/kg.
A short description of data set [3]: Toxicity in male CD-1 mouse assessed as stimulation of appetite at 12 to 13 mg/kg, ip. The format is organism-based. The note with it: in vivo, dose 12-13 mg/kg.
The subject of data set [4] is Mus musculus. The data set can be described thus: Antiseizure activity in PTZ-induced male CD-1 mouse clonic seizure model assessed as improvement in locomotor activity by measuring total events at 12 mg/kg, ip pretreated with compound followed by PTZ-induction by open field test. The data set is classed as functional.
Data set [5] relates to Mus musculus. The data set can be described thus: Antiseizure activity in PTZ-induced male CD-1 mouse clonic seizure model assessed as increase in latency time by measuring fold change at 12 mg/kg, ip pretreated with compound followed by PTZ-induction. The data set is classed as functional.
The subject of data set [6] is Mus musculus. The data set can be described thus: Antiseizure activity in PTZ-induced male CD-1 mouse clonic seizure model assessed as increase in latency time at 12 mg/kg, ip pretreated with compound followed by PTZ-induction. The format is functional.
For data set [7], the system named is Mus musculus. The data set can be described thus: Antiseizure activity in PTZ-induced male CD-1 mouse clonic seizure model assessed as improvement in locomotor activity by measuring fold change at 12 mg/kg, ip pretreated with compound followed by PTZ-induction. The format is functional.
Data set [8] has as its system Mus musculus. The data set can be described thus: Antiseizure activity in PTZ-induced male CD-1 mouse clonic seizure model assessed as increase in latency time by measuring fold change at 15 mg/kg, ip pretreated with compound followed by PTZ-induction. The format is functional.
Data set [9] concerns Mus musculus. The data set can be described thus: Antiseizure activity in PTZ-induced male CD-1 mouse clonic seizure model assessed as improvement in locomotor activity by measuring fold change at 15 mg/kg, ip pretreated with compound followed by PTZ-induction by open field test. The format is functional.
Data set [10] deals with Mus musculus. Kind of data set: Antiseizure activity in PTZ-induced male CD-1 mouse clonic seizure model assessed as increase in latency time at 15 mg/kg, ip pretreated with compound followed by PTZ-induction. The data set is classed as functional.
Data set [11] relates to Mus musculus. The data set can be described thus: Antiseizure activity in PTZ-induced male CD-1 mouse clonic seizure model assessed as improvement in locomotor activity by measuring total events at 15 mg/kg, ip pretreated with compound followed by PTZ-induction by open field test. The data set is classed as functional.
In data set [12] the test system is Mus musculus. The data set can be described thus: Antiseizure activity in PTZ-induced male CD-1 mouse clonic seizure model assessed as increase in latency time by measuring fold change at 13 mg/kg, ip pretreated with compound followed by PTZ-induction. The data set is classed as functional.
Data set [13] has as its system Mus musculus. Kind of data set: Antiseizure activity in PTZ-induced male CD-1 mouse clonic seizure model assessed as improvement in locomotor activity by measuring total events at 13 mg/kg, ip pretreated with compound followed by PTZ-induction by open field test. The format is functional.
Data set [14] has as its system Mus musculus. The data set can be described thus: Antiseizure activity in PTZ-induced male CD-1 mouse clonic seizure model assessed as improvement in locomotor activity by measuring fold change at 13 mg/kg, ip pretreated with compound followed by PTZ-induction. The format is functional.
The subject of data set [15] is Mus musculus. Kind of data set: Antiseizure activity in PTZ-induced male CD-1 mouse clonic seizure model assessed as increase in latency time at 13 mg/kg, ip pretreated with compound followed by PTZ-induction. The data set is classed as functional.

In the case of `CC1=C(C)C[C@]2(C(=O)c3ccc(C)cc3)C(=O)Oc3ccccc3[C@@H]2C1`, the Activity entry in data set [1] was “Toxic”; in data set [2], “Toxic”; in data set [3] it was “Toxic”; in the data set with Mus musculus [4], 2876. In addition, the “fold change (FC)” value in the data set with Mus musculus [5] was roughly 4; in the data set with Mus musculus [7] it was 2.4. For the same compound, the Time in the data set on Mus musculus [6] amounted to 269 s.
As to `Cc1c(C(=O)c2cccc3ccccc23)c2cccc3c2n1C(CN1CCOCC1)CO3` (stereo not given), the “fold change (FC)” value in the data set with Mus musculus [8] was roughly 4; with Mus musculus [9], 3. Moreover, the Time in the data set with Mus musculus [10] stood at 279 s. Further, in the data set on Mus musculus [11], the Activity was 3079.
For the compound `CC1=C(C)C[C@]2(C(=O)c3ccc(Cl)cc3)C(=O)Oc3ccccc3[C@@H]2C1`, the Activity entry in data set [1] is recorded as “Toxic”; in data set [2], “Toxic”; in data set [3] it was “Toxic”; with Mus musculus [13], 2790. In addition, the “fold change (FC)” value was roughly 4 with Mus musculus [12] and 2.4 in the data set with Mus musculus [14]. The Time with Mus musculus [15] came to 266 s.
As to `CC1=C(C)C[C@]2(C(=O)c3ccccc3)C(=O)Oc3ccccc3[C@@H]2C1`, the Activity entry is given as “Toxic” in data set [1], “Toxic” in data set [2], “Toxic” in data set [3] and 2747 in the data set with Mus musculus [4]. Further, the “fold change (FC)” value in the data set on Mus musculus [5] is roughly 4; with Mus musculus [7], 2.4. Moreover, the Time in the data set on Mus musculus [6] is 264 s.
